Read-outs that look alike come from different tables or passages of the source.

We go through ten molecules from patent publication US20240092784A1, “CONDENSED HETEROCYCLIC COMPOUND” (NISSAN CHEMICAL CORPORATION, priority 2020, published 2024).

This experiment has as its target human SPR (Homo sapiens (Human), UniProt P35270). Description: Evaluation Example 2: Measurement of human SPR inhibitory activity (seven concentrations, sepiapterin absorbance at 420 nm). Type of experiment: biochemical. An outline of the steps:
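His-tagged full-length human SPR (1-261) was expressed in E. coli and the tag removed. Enzyme at 150 ng/mL in 100 mM Tris-HCl pH 7.5/0.01% BSA was mixed with compound (0.14–100 nM, seven points), 120 μM sepiapterin and 160 μM NADPH, both as added-solution concentrations. After 240 min at room temperature, remaining sepiapterin was read at 420 nm to give percent inhibition.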

Setting [1] is: Evaluation Example 2, seven concentrations 0.14 nM to 100 nM, 240 minutes at room temperature, read-out: IC50.
Where [2] appears, read: sepiapterin absorbance, Table 41, read-out: concentration at 50% inhibition of human SPR (IC50).

human SPR, sequence (P35270 whole entry): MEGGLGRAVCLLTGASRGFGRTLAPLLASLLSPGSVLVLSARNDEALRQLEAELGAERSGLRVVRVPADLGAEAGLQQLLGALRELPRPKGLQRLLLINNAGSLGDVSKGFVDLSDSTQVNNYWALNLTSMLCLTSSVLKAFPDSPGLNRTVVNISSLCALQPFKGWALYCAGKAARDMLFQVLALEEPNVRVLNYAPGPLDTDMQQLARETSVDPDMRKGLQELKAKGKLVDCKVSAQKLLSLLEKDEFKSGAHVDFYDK

With `CC(C)Cn1c(=O)c(C(=O)NC2CC2)c(O)n2ncc(/C=C/C(=O)N3CCC(C(F)F)C3)c12` (racemic) [compound 596, (E)-N-Cyclopropyl-3-(3-(3-(difluoromethyl)pyrrolidin-1-yl)-3-oxoprop-1-en-1-yl)-7-hydroxy-4-isobutyl-5-oxo-4,5-dihydropyrazolo[1,5-a]pyrimidine-6-carboxamide (racemate)], the IC50 under setting [1] was found to be 0.96 nM. On the same count and under the same terms, the value for `Cc1nn2c(O)c(C(=O)NC3CC3)c(=O)n(CC(C)C)c2c1/C=C/C(=O)N1CCCC12CCN(C)CC2` [Synthesis Example 664, (E)-N-Cyclopropyl-7-hydroxy-4-isobutyl-2-methyl-3-(3-(8-methyl-1,8-diazaspiro[4.5]decan-1-yl)-3-oxoprop-1-en-1-yl)-5-oxo-4,5-dihydropyrazolo[1,5-a]pyrimidine-6-carboxamide] was 0.77 nM; that for `CC(C)(C)Cn1c(=O)c(C(=O)NC2CC2)c(O)n2nc(CN3CCCCC3)cc12` [Synthesis Example 274, N-Cyclopropyl-7-hydroxy-4-neopentyl-5-oxo-2-(piperidin-1-ylmethyl)-4,5-dihydropyrazolo[1,5-a]pyrimidine-6-carboxamide] was 9.46 nM. For `Cc1nn2c(O)c(C(=O)NC3CC3)c(=O)n(CC(C)(C)C)c2c1/C=C/C(=O)N(C)CC#N` [Synthesis Example 690, (E)-3-(3-((Cyanomethyl)(methyl)amino)-3-oxoprop-1-en-1-yl)-N-cyclopropyl-7-hydroxy-2-methyl-4-neopentyl-5-oxo-4,5-dihydropyrazolo[1,5-a]pyrimidine-6-carboxamide], the IC50 under setting [2] was 1.46 nM. Consider `COc1ncccc1-c1cc2n(CC(C)(C)C)c(=O)c(C(=O)NC3CC3)c(O)n2n1` [Synthesis Example 281, N-Cyclopropyl-7-hydroxy-2-(2-methoxypyridine-3-yl)-4-neopentyl-5-oxo-4,5-dihydropyrazolo[1,5-a]pyrimidine-6-carboxamide], for which the IC50 under setting [1] came out at 3.08 nM.

On to `CC(C)Cn1c(=O)c(C(=O)NC2CC2)c(O)n2ncc(/C=C/C(=O)N3CCC[C@H]3C(C)(C)O)c12` [Synthesis Example 730, (S,E)-N-Cyclopropyl-7-hydroxy-3-(3-(2-(2-hydroxypropan-2-yl)pyrrolidin-1-yl)-3-oxoprop-1-en-1-yl)-4-isobutyl-5-oxo-4,5-dihydropyrazolo[1,5-a]pyrimidine-6-carboxamide], for which, under setting [2], the IC50 was found to be 1.26 nM. For `Cc1cncnc1Nc1cc2n(CC(C)(C)C)c(=O)c(C(=O)NC3CC3)c(O)n2n1` [Synthesis Example 340, N-Cyclopropyl-7-hydroxy-2-((5-methylpyrimidin-4-yl)amino)-4-neopentyl-5-oxo-4,5-dihydropyrazolo[1,5-a]pyrimidine-6-carboxamide], the IC50 under setting [1] worked out at 1.92 nM. The same measure, in the same setting: for `CN1Cc2c(nn3c(O)c(C(=O)NC4CC4)c(=O)n(CC(C)(C)C)c23)NC1=O` [Synthesis Example 406, N-Cyclopropyl-8-hydroxy-3-methyl-5-neopentyl-2,6-dioxo-1,2,3,4,5,6-hexahydropyrazolo[1,5-a:3,4-d′]dipyrimidine-7-carboxamide] the value was 0.93 nM. For `CC(C)Cn1c(=O)c(C(=O)NC2CC2)c(O)n2ncc(/C=C/C(=O)N3C[C@H](C)OC[C@@H]3C)c12` [Synthesis Example 717, N-Cyclopropyl-3-((E)-3-((2S,5S)-2,5-dimethylmorpholino)-3-oxoprop-1-en-1-yl)-7-hydroxy-4-isobutyl-5-oxo-4,5-dihydropyrazolo[1,5-a]pyrimidine-6-carboxamide], under setting [2], the IC50 was found to be 0.78 nM. For the molecule `CC(C)(C)Cn1c(=O)c(C(=O)NC2CC2)c(O)n2nc3c(c12)CCN3` [Synthesis Example 396, N-Cyclopropyl-7-hydroxy-4-neopentyl-5-oxo-2,3,4,5-tetrahydro-1H-pyrrolo[2′,3′:3,4]pyrazolo[1,5-a]pyrimidine-6-carboxamide], the IC50 under setting [1] was determined as 1.35 nM.
